Measurements taken from patent US20260256792A1, “TREATMENT OF CHRONIC SPONTANEOUS URTICARIA BY ADMINISTERING (R)-2-[3-[4-AMINO-3-(2-FLUORO-4-PHENOXY-PHENYL)PYRAZOLO[3,4-D]PYRIMIDIN-1-YL]PIPERIDINE-1-CARBONYL]-4-METHYL-4-[4-(OXETAN-3-YL)PIPERAZIN-1-YL]PENT-2-ENENITRILE” (priority 2023, published 2026).

Tested on: moderate-to-severe chronic spontaneous urticaria (CSU)
Test: Phase 2 CSU study: hives severity score over 7 days (HSS7)
Type: in vivo, human
Set-up: key to HSS7 Change from baseline, Median / HSS7, Median / HSS7, Max / HSS7 Change from baseline, Q1 / HSS7 Change from baseline, Q3 / HSS7 Change from baseline, Max: 7-day sum of daily hive scores, each 0 = none to 3 = >50 hives
Conditions: for median reduction in HSS7 at Week 12: omalizumab-naïve population; for HSS7, Mean (SD) / HSS7, Median: End of Study; for HSS7 change from baseline at Week 12, LS Mean / HSS7 change from baseline at Week 12, LS Mean Diff vs. placebo: ANCOVA
Description: The study comprises a 12 week, randomized, double-blind, placebo-controlled, multi-center, dose-ranging efficacy and safety phase, followed by a 40 week open label extension (OLE) phase (see FIG. 1).
The study consists of three phases and an optional OLE phase.
The UAS is a validated PRO measure. The daily UAS is the sum of the daily Hive Severity Score (HSS, ranging from 0=None to 3=more than 50 hives) and the daily Itch Severity Score (ISS, ranging from 0=None to 3=intense), the 2 key urticaria signs and symptoms which are wheals and itch. The daily UAS scores range from 0 to 6 point/day. Daily UAS scores are summed over 7-day period to create the UAS7, ranging from 0 to 42, and are composed of the HSS7 and ISS7 components. […] Patients were to complete the UAS using the e-diary. The e-diary was to be used once daily on the same time of each day recording of participant's answers to the urticaria activity score over 7 days (UAS7) questionnaire. For participants who entered the OLE phase, their answers to the UAS7 questionnaire were also to be collected from Week 20 to Week24 and from Week 48 to Week 52.
The following secondary endpoints were to be analyzed using the same approach as for the primary endpoint: • Change from baseline in UAS7 at Week 4 • Change from baseline in UAS7 at Week 12 (for US and US reference countries) • Change from baseline in ISS7 at Week 12 (except US and US reference countries) • Change from baseline in HSS7 at Week 12

[1] = 400 mg TID, Week 9, ITT Population
[2] = 400 mg TID, Week 9, Omalizumab-Naïve Population
[3] = 400 mg TID, Week 10, ITT Population
[4] = 400 mg TID, Week 11, ITT Population
[5] = 400 mg TID, Week 12, ITT population
[6] = 400 mg TID, patients with prior omalizumab use, last block under Week 12, double-blind period, WOCF imputation
[7] = 400 mg BID, Omalizumab-Naïve Population
[8] = 400 mg QPM, Omalizumab-Naïve Population
[9] = 400 mg TID, Patients with Prior Omalizumab Use
[10] = Omalizumab-Naïve Population with Outlier Removed from Analysis, 400 mg BID
[11] = Omalizumab-Naïve Population with Outlier Removed from Analysis, 400 mg QPM
[12] = Omalizumab-Naïve Population with Outlier Removed from Analysis, 400 mg TID
[13] = Omalizumab-naïve Population, 400 mg BID
[14] = Omalizumab-naïve Population, 400 mg QPM
[15] = Omalizumab-naïve Population, 400 mg TID

SMILES: CC(C)(C=C(C#N)C(=O)N1CCC[C@@H](n2nc(-c3ccc(Oc4ccccc4)cc3F)c3c(N)ncnc32)C1)N1CCN(C2COC2)CC1 [rilzabrutinib, (R)-2-[3-[4-amino-3-(2-fluoro-4-phenoxy-phenyl)pyrazolo[3,4-d]pyrimidin-1-yl]piperidine-1-carbonyl]-4-methyl-4-[4-(oxetan-3-yl)piperazin-1-yl]pent-2-enenitrile]
- HSS7 Postbaseline Mean (SD) (400 mg TID, Week 8, Omalizumab-Naïve Population): 6.12 (4.80)
- HSS7 Postbaseline Mean (SD) (400 mg TID, Week 8, Omalizumab-Naïve Population with Outlier Removed from Analysis): 6.12 (4.80)
- HSS7 % Change difference for rilzabrutinib vs.placebo LS Mean (95% CI) [1]: −29.14 %
- HSS7 % Change from baseline LS Mean (SE) [1]: −53.06 (6.70) %
- HSS7 Change difference for rilzabrutinib vs.placebo LS Mean (95% CI) [1]: −3.67 (−6.21, −1.13)
- HSS7 Change from baseline LS Mean (SE) [1]: −7.79 (0.94)
- HSS7 Postbaseline Mean (SD) [1]: 5.43 (4.93)
- HSS7 % Change difference for rilzabrutinib vs.placebo LS Mean (95% CI) [2]: −27.94 %
- HSS7 Postbaseline Mean (SD) [2]: 5.88 (4.98)
- HSS7 Postbaseline Mean (SD) (400 mg TID, Week 9, Omalizumab-Naïve Population with Outlier Removed from Analysis): 5.88 (4.98)
- HSS7 % Change difference for rilzabrutinib vs.placebo LS Mean (95% CI) [3]: −28.54 %
- HSS7 % Change from baseline LS Mean (SE) [3]: −56.54 (6.68) %
- HSS7 Change difference for rilzabrutinib vs.placebo LS Mean (95% CI) [3]: −3.55 (−6.13, −0.97)
- HSS7 Change from baseline LS Mean (SE) [3]: −8.15 (0.96)
- HSS7 Postbaseline Mean (SD) [3]: 5.39 (5.05)
- HSS7 Postbaseline Mean (SD) (400 mg TID, Week 10, Omalizumab-Naïve Population): 5.87 (5.06)
- HSS7 Postbaseline Mean (SD) (400 mg TID, Week 10, Omalizumab-Naïve Population with Outlier Removed from Analysis): 5.87 (5.06)
- HSS7 % Change difference for rilzabrutinib vs.placebo LS Mean (95% CI) [4]: −28.42 %
- HSS7 % Change from baseline LS Mean (SE) [4]: −54.96 (6.95) %
- HSS7 Change difference for rilzabrutinib vs.placebo LS Mean (95% CI) [4]: −3.55 (−6.14, −0.95)
- HSS7 Change from baseline LS Mean (SE) [4]: −8.09 (0.96)
- HSS7 Postbaseline Mean (SD) [4]: 5.60 (5.41)
- HSS7 Postbaseline Mean (SD) (400 mg TID, Week 11, Omalizumab-Naïve Population): 6.17 (5.40)
- HSS7 Postbaseline Mean (SD) (400 mg TID, Week 11, Omalizumab-Naïve Population with Outlier Removed from Analysis): 6.17 (5.40)
- HSS7 % Change difference for rilzabrutinib vs.placebo LS Mean (95% CI) [5]: −29.54 %
- HSS7 % Change from baseline LS Mean (SE) [5]: −57.27 (7.06) %
- HSS7 Change difference for rilzabrutinib vs.placebo LS Mean (95% CI) [5]: −3.42 (−6.11, −0.74)
- HSS7 Change from baseline LS Mean (SE) [5]: −8.31 (1.00)
- HSS7 Postbaseline Mean (SD) [5]: 4.92 (4.89)
- HSS7 Postbaseline Mean (SD) (400 mg TID, Week 12, Omalizumab-Naïve Population): 5.23 (4.86)
- HSS7 Postbaseline Mean (SD) (400 mg TID, Week 12, Omalizumab-Naïve Population with Outlier Removed from Analysis): 5.23 (4.86)
- median reduction in HSS7 at Week 12 (400 mg TID): −7.64
- median reduction in HSS7 at Week 12 (400 mg TID, outlier removed): −7.89
- HSS7, Max [6]: 8.2
- HSS7, Min [6]: 4.0
- HSS7 Change from baseline, Max [6]: 0.0
- HSS7 Change from baseline, Mean (SD) [6]: −2.00 (2.83)
- HSS7 Change from baseline, Median [6]: −2.00
- HSS7 Change from baseline, Min [6]: −4.0
- HSS7 Change from baseline, Q1 [6]: −4.00
- HSS7 Change from baseline, Q3 [6]: 0.00
- HSS7 Percent change from baseline, Max [6]: 0.0%
- HSS7 Percent change from baseline, Mean (SD) [6]: −25.00 (35.36) percent
- HSS7 Percent change from baseline, Median [6]: −25.00%
- HSS7 Percent change from baseline, Min [6]: −50.0%
- HSS7 Percent change from baseline, Q1 [6]: −50.00%
- HSS7 Percent change from baseline, Q3 [6]: 0.00%
- HSS7, Mean (SD) [7]: 7.80 (8.76)
- HSS7, Median [7]: 7.00
- HSS7, Mean (SD) [8]: 6.13 (9.09)
- HSS7, Median [8]: 1.40
- HSS7, Mean (SD) (400 mg TID, Omalizumab-Naïve Population): 10.00 (5.79)
- HSS7, Mean (SD) [9]: 6.08 (2.95)
- HSS7, Median [9]: 6.08
- HSS7 at Week 12, Mean (ITT Population, 400 mg BID): 7.08
- HSS7 at Week 12, Median (ITT Population, 400 mg BID): 6.00
- HSS7 change from baseline at Week 12, Mean (ITT Population, 400 mg BID): −7.81
- HSS7 change from baseline at Week 12, Median (ITT Population, 400 mg BID): −5.30
- HSS7 change from baseline at Week 12, LS Mean (ITT Population, 400 mg BID): −6.78
- HSS7 change from baseline at Week 12, LS Mean Diff vs. placebo (ITT Population, 400 mg BID): −1.89
- HSS7 at Week 12, Median (ITT Population, 400 mg QPM): 8.75
- HSS7 change from baseline at Week 12, Mean (ITT Population, 400 mg QPM): −5.05
- HSS7 change from baseline at Week 12, Median (ITT Population, 400 mg QPM): −4.00
- HSS7 change from baseline at Week 12, LS Mean (ITT Population, 400 mg QPM): −4.75
- HSS7 change from baseline at Week 12, LS Mean Diff vs. placebo (ITT Population, 400 mg QPM): 0.14
- HSS7 at Week 12, Mean (ITT Population, 400 mg TID): 4.92
- HSS7 at Week 12, Median (ITT Population, 400 mg TID): 3.50
- HSS7 change from baseline at Week 12, Mean (ITT Population, 400 mg TID): −9.62
- HSS7 change from baseline at Week 12, Median (ITT Population, 400 mg TID): −9.00
- HSS7 change from baseline at Week 12, LS Mean (ITT Population, 400 mg TID): −8.31
- HSS7 change from baseline at Week 12, LS Mean Diff vs. placebo (ITT Population, 400 mg TID): −3.42
- HSS7 at Week 12, Mean [10]: 7.52
- HSS7 at Week 12, Median [10]: 7.00
- HSS7 change from baseline at Week 12, Mean [10]: −7.09
- HSS7 change from baseline at Week 12, Median [10]: −4.50
- HSS7 change from baseline at Week 12, LS Mean [10]: −6.56
- HSS7 change from baseline at Week 12, LS Mean Diff vs. placebo [10]: −2.20
- HSS7 at Week 12, Median [11]: 8.58
- HSS7 change from baseline at Week 12, Mean [11]: −4.85
- HSS7 change from baseline at Week 12, Median [11]: −4.00
- HSS7 change from baseline at Week 12, LS Mean [11]: −4.57
- HSS7 change from baseline at Week 12, LS Mean Diff vs. placebo [11]: −0.22
- HSS7 at Week 12, Mean [12]: 5.23
- HSS7 at Week 12, Median [12]: 4.08
- HSS7 change from baseline at Week 12, Mean [12]: −8.77
- HSS7 change from baseline at Week 12, Median [12]: −8.00
- HSS7 change from baseline at Week 12, LS Mean [12]: −7.89
- HSS7 change from baseline at Week 12, LS Mean Diff vs. placebo [12]: −3.54
- HSS7 at Week 12, Mean [13]: 7.52
- HSS7 at Week 12, Median [13]: 7.00
- HSS7 change from baseline at Week 12, Mean [13]: −7.09
- HSS7 change from baseline at Week 12, Median [13]: −4.50
- HSS7 change from baseline at Week 12, LS Mean [13]: −6.52
- HSS7 change from baseline at Week 12, LS Mean Diff vs. placebo [13]: −2.12
- HSS7 at Week 12, Median [14]: 8.58
- HSS7 change from baseline at Week 12, Mean [14]: −4.85
- HSS7 change from baseline at Week 12, Median [14]: −4.00
- HSS7 change from baseline at Week 12, LS Mean [14]: −4.49
- HSS7 change from baseline at Week 12, LS Mean Diff vs. placebo [14]: −0.09
- HSS7 at Week 12, Mean [15]: 5.23
- HSS7 at Week 12, Median [15]: 4.08
- HSS7 change from baseline at Week 12, Mean [15]: −8.77
- HSS7 change from baseline at Week 12, Median [15]: −8.00
- HSS7 change from baseline at Week 12, LS Mean [15]: −7.64
